Test results reported in patent US9050269B2, “Protection of virus particles from phagocytosis by expression of CD47” (priority 2009, dated 2015).

What was measured:
THP-1 macrophages [1] = experiment: Phagocytosis of IgG-opsonized streptavidin beads with or without hCD47 by THP-1 macrophages; format: cell-based, human
Method: The extracellular immunoglobulin-like domains of human CD47 (hCD47) was recombinantly expressed with a spacer domain (Brown et al., 1994, Protein Eng. 7:515-21; Brown et al., 1998, J. Exp. Med. 188:2083-90) plus a C-terminal biotinylation site. […] The beads were opsonized by pretreatment with anti-streptavidin to again induce FcR-mediated phagocytosis (for 45 minutes at 37° C.), and non-engulfed beads were detected with a flourescein anti-Fc against the IgG-opsonin. The number of adherent IgG-opsonized beads per phagocyte was independent of hCD47 (not shown).
Human CD47 gave a Ki at high opsonin of 20 CD47/μm^2, which appears ˜10-fold less than normal human RBC densities of CD47. […] A higher baseline level of bead phagocytosis versus RBCs could redirect the fact that stiffer targets are more readily engulfed (Beningo et al., 2002, J. Cell Sci. 115:849-856).
For phagocytosis assays, macrophages were plated in 4 cm^2, or 2 cm^2 Lab-Tek II Chambered Coverglass (Nalge Nunc International, Naperville, Ill.) at 1.5×10^5/cm^2. Streptavidin polystyrene beads of different radius: 3.5 μm, 1.1 μm, 160 nm (Spherotech) and 100 nm (Ademtech) were added to macrophages at a ratio of 2:1, 20:1, 277:1, and 2206:1 respectively and incubate at 37° C. for 45 min. […] Non-phagocytosed beads were washed with PBS. Cells were fixed with 5% formaldehyde (Fisher Scientific) for 5 minutes, followed by immediate replacement with PBS. For differentiation of non-internalized beads, beads were labeled with a primary antibody, rabbit anti-streptavidin (Sigma) at 1:1000 in PBS for 20 min at 25° C. A second antibody, anti-rabbit R-PE (Sigma) was added at 1:1000 in PBS to the cells and incubated for an additional 20 minutes at 25° C. Cells were then washed with PBS/0.4% BSA and then quantified by light and fluorescent microscopy. At least 200 cells were scored per well and experiments were repeated at least three times. […]
Beads were opsonized at saturating densities of IgG, and over a 20-fold range of CD47 densities, the number of internalized beads per THP-1 was measured. […]

THP-1 macrophages [2] = experiment: Phagocytosis of IgG-opsonized sheep RBCs by THP-1 macrophages; format: cell-based, human
Source text: Phagocytosis by the human-derived THP-1 macrophages of IgG-opsonized RBCs was studied by imaging in DIC microscopy. […] RBC membranes were prelabeled with PKH26, and non-engulfed RBCs were labeled with a fluorescein-labeled antibody against the Fc of the IgG-opsonin.
To more directly assess the function of the IIA isoform, the effects of both knockdown and overexpression were functionally studied.

[3] = system: A549 human lung epithelial cells; format: cell-based; details: blebbistatin at various concentrations; MOI 270
THP-1 macrophages [4] = format: cell-based, human
[5] = system: non-muscle myosin IIA at the phagocytic synapse of THP-1 macrophages; experiment: Protein localization to the phagocytic synapse (immunofluorescence); format: cell-based, human; details: blebbistatin 50 μM, 10 min pre-incubation
Method: […] Opsonized beads of different sizes were added to THP-1 cells, PMA treated and immediately placed at 4° C. for 10 min to synchronize phagocytosis. […] For studies involving blebbistatin (EMD Biosciences), macrophages were treated for 10 min at 4° C. prior to temperature increase to 37° C. or for 45 min and 37° C. Macrophages treated with DMSO were used to verify no solvent effects.
Immunostaining was performed by permeabilization with 0.1% Triton X-100 in PBS for 20 min before blocking for 1 h with 5% BSA in PBS. Staining with primary antibodies was carried out for 1 h at room temperature in PBS. Following washing, samples were incubated with appropriate PE-conjugated secondary antibodies (1:1000). To label cytoskeletal proteins at the phagocytic synapse, primary Ab's prepared with Zenon Alexa 488 or Zenon Alexa 647 Fab labeling kits (Invitrogen) labeled for 45 min at room temperature. Cells were immediately fixed using 5% formaldehyde for 20 minutes and washed with PBS. Samples were analyzed by differential interference contrast (DIC) and fluorescence microscopy.
Images were acquired with an inverted microscope (Olympus; IX71) with a 60× (oil, 1.4 NA) objective using a Cascade CCD camera (Photometrics, Tuscon, Ariz.). Image acquisition was performed with Image Pro software (Media Cybernetics, Silver Spring, Md.). […]

SHP-1 = SHP-1 (Homo sapiens, UniProt P29350); details: reported, Chen et al., 2006; cited from earlier work
THP-1 macrophages [6] = experiment: SHP-1 inhibitor effect on phagocytosis of IgG-opsonized particles; format: cell-based, human
Method: For phagocytosis assays with CD47 attached particles at 100 nm to 1.1 μm diameter were IgG-opsonizied. THP-1 macrophage, PMA activated were treated with 0-0.5 μM NSC-87877 an SHP-1 Inhibitor (gift from Frank L. Conlon) 5 minutes prior to the addition of IgG-opsonizied particles. Phagocytosis assay occurred at 37° C. for 45 minutes and then fixed for 5 minutes with 5% formaldehyde as described for the phagocytosis assay (Fisher Scientific).
In order to specifically block SHP-1, an inhibitor NSC-87877 was used with a reported high specificity to SHP-1 (Chen et al., 2006, Mol. Pharmacol. 70(2):562-70; Langdon et al., 2007, Development 134(22):4119-30). […] The uptake of these particles was measured as the number of particles ingested per phagocyte.

Sequence of SHP-1 (P29350 whole entry): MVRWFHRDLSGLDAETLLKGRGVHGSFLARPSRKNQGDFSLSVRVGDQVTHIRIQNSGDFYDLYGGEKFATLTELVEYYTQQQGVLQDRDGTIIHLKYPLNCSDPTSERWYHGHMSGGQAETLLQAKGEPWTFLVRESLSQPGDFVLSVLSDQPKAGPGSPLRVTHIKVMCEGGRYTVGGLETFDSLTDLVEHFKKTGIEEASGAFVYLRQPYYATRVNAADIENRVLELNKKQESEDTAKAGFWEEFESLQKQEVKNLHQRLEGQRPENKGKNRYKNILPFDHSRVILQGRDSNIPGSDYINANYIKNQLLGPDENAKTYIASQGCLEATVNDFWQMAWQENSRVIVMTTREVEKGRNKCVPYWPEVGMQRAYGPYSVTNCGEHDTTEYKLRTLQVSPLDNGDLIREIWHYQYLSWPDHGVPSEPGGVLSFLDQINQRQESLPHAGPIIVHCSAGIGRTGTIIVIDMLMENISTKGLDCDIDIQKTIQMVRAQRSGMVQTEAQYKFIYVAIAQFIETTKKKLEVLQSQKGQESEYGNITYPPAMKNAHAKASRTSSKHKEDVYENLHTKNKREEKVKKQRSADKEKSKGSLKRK

Compound | uptake of IgG-opsonized particles by THP-1 (THP-1 macrophages [1]; 50 μM blebbistatin, 100 nm particles, vs DMSO) | uptake of IgG-opsonized particles by THP-1 (THP-1 macrophages [1]; blebbistatin, 1.1 μm particles) | phagocytosis of CD47-null beads (THP-1 macrophages [1]; blebbistatin, uncoated approximately 2.1 μm beads) | inhibition of ShRBC phagocytosis by GFP-NMM IIA expressing THP-1 (THP-1 macrophages [2]; 5 μM blebbistatin) | engulfment of sheep RBCs by THP-1 macrophages (THP-1 macrophages [2]; compared with CD47 on human RBCs) | Ki (THP-1 macrophages [2]; dose-response, sheep RBCs engulfed by THP-1 macrophages, read-out: Ki-blebb for blebbistatin inhibition of phagocytosis) | lentivirus transduction in A549 cells [3] | transduction of control lentiviral particles (THP-1 macrophages [4]; 50 μM Blebbistatin vs DMSO) | transduction of overexpressed hCD47 lentiviral particles (THP-1 macrophages [4]; 50 μM Blebbistatin vs DMSO) | transduction efficiency of control lentivirus (THP-1 macrophages [4]; blebbistatin at various concentrations, MOI 700) | enrichment of NMM IIA at synaptic contacts with sheep RBC targets [5] | IC50 (SHP-1) | particles ingested per phagocyte, hCD47 particles (THP-1 macrophages [6]; 62.5 nM NSC-87877, 100 nm IgG-opsonized particles with hCD47) | particles ingested per phagocyte, beads without hCD47 (THP-1 macrophages [6]; 62.5 nM NSC-87877, 100 nm IgG-opsonized particles without hCD47) | particles ingested per phagocyte, hCD47 particles (THP-1 macrophages [6]; NSC-87877, 1.1 μm IgG-opsonized particles with hCD47)
Cc1ccc2c(c1)C(=O)C1(O)CCN(c3ccccc3)C1=N2 (stereo not drawn) [blebbistatin] | decrease in uptake | comparable results | inhibited phagocytosis of CD47-null beads to a level similar as hCD47 beads | ~50% | inhibited | 5000 nM | no effect | inhibited transduction | no changes were observed | dose dependent response | inhibited enrichment of NMM IIA |  |  |  | 
O=S(=O)(O)c1ccc2cc(N=Nc3cc(S(=O)(=O)O)c4cccnc4c3O)ccc2c1 [NSC-87877] |  |  |  |  |  |  |  |  |  |  |  | 500 nM | an increase of ingested particles | no statistical difference | increase in uptake comparable to uncoated IgG-opsonizied particles
